The text below walks through data of US20210379010A1, “COMPOSITIONS COMPRISING CANNABINOIDS FOR USE IN THE TREATMENT OF BIOFILM AND CONDITIONS ASSOCIATED WITH MICROBIAL, FUNGAL, BACTERIAL INFECTIONS” (Yissum Research Development Company of The Hebrew …, priority 2018, published 2021).

Values after ≈ are worked out from the molar mass of the structure shown.

For data set [1], the system named is C. albicans biofilm. As to the kind of experiment: Flow cytometry analysis of viable cells in fungal biofilm. Conditions: for granularity: control 136 AU; for cell size: control 260 AU. In kind it is cell-based. A general note: A flow cytometer gives signals particle by particle.
The test system of a further data set is S. mutans. As to the kind of experiment: S. mutans growth (MIC). The format is cell-based. The following applies: single S. mutans growth.
The test system of data set [2] is mixed C. albicans-S. mutans biofilm. As to the kind of experiment: Co-species C. albicans-S. mutans biofilm formation inhibition. In kind it is cell-based.
The test system of data set [3] is C. albicans biofilm. As to the kind of experiment: C. albicans biofilm formation inhibition. In kind it is cell-based.
For data set [4], the system named is mixed S. mutans-C. albicans. As to the kind of experiment: Growth of C. albicans-S. mutans co-culture. Conditions: all tested doses. In kind it is cell-based.
A further data set deals with S. mutans biofilm. As to the kind of experiment: S. mutans biofilm formation inhibition. The format is cell-based. The following applies: for MBIC50: S. mutans biofilm formation.
Data set [5] deals with C. albicans biofilm. As to the kind of experiment: Microscopic observation of fungal morphology in biofilm. In kind it is cell-based.
Another data set relates to C. albicans. As to the kind of experiment: C. albicans growth (MIC). The format is cell-based. Conditions: single C. albicans growth; highest tested dose 64 μg/ml.
Data set [6] has as its system fluconazole resistant C. albicans strains. The format is cell-based. The following applies: each agent alone or in combination; data not shown.
The test system of data set [7] is C. albicans biofilm. As to the kind of experiment: MTT assay of C. albicans biofilm. In kind it is cell-based. How it is done: To investigate the effect of the agents on preformed biofilms, biofilms were allowed to mature in for 24 h at 37° C. in a 6-well plate. The biofilms were washed twice with PBS. The active agents were then applied. The plates were further incubated for 24 h at 37° C. The amounts of biofilms, were determined quantitatively using a standard MTT reduction assay as described previously. Briefly, biofilms were overlaid with […] of 3-(4,5-dimethyl-2-thiazolyl)-2,5-diphenyl-2H-tetrazolium bromide (MTT) and incubated for 2 h at 37° C. Under these conditions, the lightly yellowish MTT was reduced to a blue tetrazolium salt accumulated within the metabolic active biofilms. The stain was then dissolved in DMSO and the absorbance value was measured at 570 nm. The accumulation of tetrazolium salt by the reduction of MTT is proportional to the number of viable cells growing in biofilm. Prior to dissolving in DMSO, biofilms were photographed and visualized. Assay was performed in triplicate.

The subject of another data set is P. aeruginosa biofilm. As to the kind of experiment: CLSM of treated P. aeruginosa biofilm.
Another data set has as its system S.aureus MRSA 33592. As to the kind of experiment: Growth of MRSA 33592, cannabinoid alone and combined with antibiotic (MIC/FIC/FICI). The format is cell-based. The following applies: MRSA 33592 growth; for MIC METH: methicillin alone; for MIC AMP: ampicillin alone.
Data set [8] relates to S.aureus MRSA 33592 biofilm. As to the kind of experiment: Biofilm formation of MRSA 33592, cannabinoid alone and combined with antibiotic (MBIC/FBIC/FBICI). Conditions: for MBIC METH: methicillin alone; for MBIC AMP: ampicillin alone. In kind it is cell-based.
A further data set deals with S. aureus MRSA 24433. As to the kind of experiment: Growth of MRSA 24433, cannabinoid alone and combined with antibiotic (MIC/FIC/FICI). In kind it is cell-based. Conditions: for FIC METH / MIC METH: MRSA 24433 growth; for MIC METH: methicillin alone.
The subject of a further data set is S.aureus MRSA 43300. As to the kind of experiment: Growth of MRSA 43300, cannabinoid alone and combined with antibiotic (MIC/FIC/FICI). The format is cell-based. The following applies: MRSA 43300 growth; for MIC METH: methicillin alone; for MIC AMP: ampicillin alone.
Data set [9] concerns S.aureus MRSA 43300 biofilm. As to the kind of experiment: Biofilm formation of MRSA 43300, cannabinoid alone and combined with antibiotic (MBIC/FBIC/FBICI). The format is cell-based. The following applies: for MBIC METH: methicillin alone; for MBIC AMP: ampicillin alone.
For data set [10], the system named is S. aureus MRSA 24433 biofilm. As to the kind of experiment: Biofilm formation of MRSA 24433, cannabinoid alone and combined with antibiotic (MBIC/FBIC/FBICI). In kind it is cell-based. The following applies: for MBIC METH: methicillin alone.

With `CCCCCCC(C)(C)c1cc(O)c2c(c1)OC(C)(C)[C@@H]1CC=C(CO)C[C@@H]21` [HU210, 1,1-Dimethylheptyl-11-hydroxy-tetrahydrocannabinol], in the data set with C. albicans biofilm [1] (8 μg/ml), the granularity is 50 AU and the cell size was found to be 110 AU. In addition, the “viable C. albicans cells in biofilm” value in the data set with C. albicans biofilm [1] (8 μg/ml, untreated control 88%) is recorded as 20%. Moreover, in the data set on C. albicans biofilm [1] (64 μg/ml), the “viable cells in fungal biofilm” value is given as “totally reduced viable cells”, the granularity was 40 AU and the cell size worked out at 100 AU. Moreover, the MIC against S. mutans turned out to be 2 µg/mL (≈ 5.17 µM). For the same molecule, the MBIC50 in [2] worked out at 4 µg/mL. Further, the “biofilm formation at highest tested dose” value in the data set on C. albicans biofilm [3] (HU210 64 μg/ml) is listed as “Almost no biofilm formed”. Also, the “MBIC50 (minimal biofilm inhibitory concentration 50, 50% of biofilm inhibition)” value with C. albicans biofilm [3] (single C. albicans biofilm formation) amounted to 2 µg/mL. Also, the growth of co-culture entry in data set [4] is on record as “not affected”. The streptococcal biofilm formation result with S. mutans biofilm (HU210 2 μg/ml) is listed as “No streptococcal biofilm was formed”. Also, the “fungal morphology in biofilm” value with C. albicans biofilm [5] (8 μg/ml) was “influenced fungal morphology”. Besides, in the data set with C. albicans biofilm [5] (64 μg/ml), the yeast-to-hyphae transition result is “appearance of mainly yeast form of C. albicans”. Besides, the “density of fungal mycelium” value with C. albicans biofilm [5] (increasing doses up to 64 μg/ml) is reported as “decreased dose-dependently”. Moreover, the “MIC, fungal growth” value with C. albicans was “not detected at tested doses”.
`CCCCCCCC/C=C\CCCCCCCC(=O)NCCO` [OEA, oleoyl ethanolamide] came in with an MBIC50 in the data set with S. mutans biofilm of 64 µg/mL.
On the same count and under the same terms, with `CCCCCCCC/C=C\CCCCCCCC(=O)N[C@@H](C)C(=O)O` [OA, oleoyl alanine] the figure was 16 µg/mL.
Consider `OC(Cn1cncn1)(Cn1cncn1)c1ccc(F)cc1F` [FLU, fluconazole, reference compound], for which the “growth of fluconazole resistant fungal strains” value in [6] was “not affected”.
As to `CCCCCCCC/C=C\CCCCCCCC(=O)NCC(=O)O` [OG, oleoyl glycine], the MBIC50 in the data set with S. mutans biofilm stood at 32 µg/mL.
As to `CCCCC/C=C\C/C=C\C/C=C\C/C=C\CCCC(=O)OC(CO)CO` [2-AG, 2-arachidonoyl glycerol], the “C. albicans biofilm formation (MTT assay)” value with C. albicans biofilm [7] is given as “dose-dependent inhibition”.
Take `CCCCCCCCCCCCCCCC(=O)NCCO` [PEA, palmitoyl ethanolamide]: in the data set with P. aeruginosa biofilm, the “layers/depth of P. aeruginosa biofilm” value is “reduced layers/depth of biofilm”.
In the case of `COc1cccc(OC)c1C(=O)N[C@@H]1C(=O)N2[C@@H]1SC(C)(C)[C@@H]2C(=O)O` [METH, methicillin, reference compound], the “FIC METH” value with S.aureus MRSA 33592 (MIC of methicillin in combination with AEA, Table 6A) is 16; with S.aureus MRSA 33592 (MIC of methicillin in combination with ARAS, Table 3A), 8; in the data set on S. aureus MRSA 24433 (MIC of methicillin in combination with AEA, Table 1), 16 µg/mL; in the data set with S. aureus MRSA 24433 (MIC of methicillin in combination with AEA, Table 6B), 16; in the data set on S. aureus MRSA 24433 (MIC of methicillin in combination with ARAS, Table 3B), more than 64; with S.aureus MRSA 43300 (MIC of methicillin in combination with AEA, Table 6C) it was 8. For the same molecule, the “FIC METH” value in the data set with S.aureus MRSA 43300 (MIC of methicillin in combination with ARAS, Table 3C) stood at 2. Moreover, the MIC METH in the data set on S.aureus MRSA 33592 (Table 3A) was 32 µg/mL; in the data set with S.aureus MRSA 33592 (Table 6A) it was 32 µg/mL; with S. aureus MRSA 24433 (Table 1), more than 64 µg/mL; with S. aureus MRSA 24433 (Table 3B), more than 64 µg/mL; in the data set with S. aureus MRSA 24433 (Table 6B) it was more than 64 µg/mL; in the data set with S.aureus MRSA 43300 (Table 3C) it was 32 µg/mL. Besides, the MIC METH in the data set with S.aureus MRSA 43300 (Table 6C) turned out to be 32 µg/mL. In addition, the “FBIC METH” value in data set [8] (MBIC of methicillin in combination with AEA, Table 6A) was found to be 8; in [8] (MBIC of methicillin in combination with ARAS, Table 3A) it was 8; in data set [9] (MBIC of methicillin in combination with AEA, Table 6C), 8; in data set [9] (MBIC of methicillin in combination with ARAS, Table 3C) it was 8; in data set [10] (MBIC of methicillin in combination with AEA, Table 1), 16 µg/mL; in [10] (MBIC of methicillin in combination with AEA, Table 6B) it was 16. For the same molecule, the “FBIC METH” value in data set [10] (MBIC of methicillin in combination with ARAS, Table 3B) was 16. In addition, the “MBIC METH” value in [8] (Table 3A) was 32; in data set [8] (Table 6A), 32; in [9] (Table 3C) it was 32; in data set [9] (Table 6C) it was 32; in data set [10] (Table 1), more than 64 µg/mL; in data set [10] (Table 3B), more than 64. Besides, the “MBIC METH” value in [10] (Table 6B) is more than 64. Moreover, the minimal inhibitory concentration (MIC) in the data set with S. aureus MRSA 24433 (Staphylococcus aureus, MRSA, read-out: MIC METH) is more than 64 µg/mL.
As for gentamycin [reference compound], the “decrease of MIC in combination” value in the data set with S.aureus MRSA 33592 (AEA with gentamicin vs agent alone) worked out at 32 fold. The “FIC GEN” value in the data set with S.aureus MRSA 33592 (MIC of gentamicin in combination with AEA, Table 7) turned out to be 4; with S.aureus MRSA 33592 (MIC of gentamycin in combination with ARAS, Table 4) it was 4. Besides, the MIC GEN in the data set on S.aureus MRSA 33592 (gentamicin alone, Table 7) came out at 128 µg/mL; with S.aureus MRSA 33592 (gentamycin alone, Table 4), 128 µg/mL. Further, the “FBIC GEN” value in data set [8] (MBIC of gentamicin in combination with AEA, Table 7) turned out to be 8; in data set [8] (MBIC of gentamycin in combination with ARAS, Table 4), 4. The “MBIC GEN” value in data set [8] (gentamicin alone, Table 7) is recorded as 128; in data set [8] (gentamycin alone, Table 4), 128.
`CC1(C)S[C@@H]2[C@H](NC(=O)[C@H](N)c3ccccc3)C(=O)N2[C@H]1C(=O)O` [AMP, ampicillin, reference compound]: the “FIC AMP” value is 8 in the data set with S.aureus MRSA 33592 (MIC of ampicillin in combination with AEA, Table 8A); 64 in the data set on S.aureus MRSA 33592 (MIC of ampicillin in combination with ARAS, Table 5A); 8 in the data set on S.aureus MRSA 43300 (MIC of ampicillin in combination with AEA, Table 8B); 16 in the data set with S.aureus MRSA 43300 (MIC of ampicillin in combination with ARAS, Table 5B). Besides, the MIC AMP in the data set with S.aureus MRSA 33592 (Table 5A) was 128 µg/mL; in the data set on S.aureus MRSA 33592 (Table 8A), 128 µg/mL; in the data set on S.aureus MRSA 43300 (Table 5B), 256 µg/mL; in the data set on S.aureus MRSA 43300 (Table 8B) it was more than 128 µg/mL. For the same molecule, the “FBIC AMP” value in data set [8] (MBIC of ampicillin in combination with AEA, Table 8A) came out at 8; in data set [8] (MBIC of ampicillin in combination with ARAS, Table 5A) it was 32; in data set [9] (MBIC of ampicillin in combination with AEA, Table 8B), 8; in data set [9] (MBIC of ampicillin in combination with ARAS, Table 5B) it was 64. Besides, the “MBIC AMP” value is given as 128 in data set [8] (Table 5A), 128 in [8] (Table 8A), 256 in data set [9] (Table 5B) and more than 128 in data set [9] (Table 8B).

What is called MIC is the lowest concentration that inhibits growth of the organism.
